In patent US20230203041A1, “ANTAGONISTS OF THE ADENOSINE A2A RECEPTOR” (AdoRx Therapeutics Limited, priority 2020, published 2023) one finds Ki and IC50 data, which are given here for 15 compounds.

The structures appear in SMILES notation.

For experiment [1], the target named is T1, human Adenosine A2a receptor (Homo sapiens, UniProt P29274).
T1 construct: expressed in transfected cells; host or cells: CHO cell membranes
Nature of the experiment: Adenosine receptor TR-FRET binding assay (CA200645 displacement), A2a. The note with it: 100 nM CA200645, CHO cell membranes, 2 hours at room temperature. For orientation: TR-FRET usually uses a lanthanide donor and a delayed reading to cut background.

Experiment [2] addresses T2, human Adenosine A2b receptor (Homo sapiens, UniProt P29275).
T2 construct: expressed in transfected cells; host or cells: CHO cell membranes
T2 sequence (P29275 1-332): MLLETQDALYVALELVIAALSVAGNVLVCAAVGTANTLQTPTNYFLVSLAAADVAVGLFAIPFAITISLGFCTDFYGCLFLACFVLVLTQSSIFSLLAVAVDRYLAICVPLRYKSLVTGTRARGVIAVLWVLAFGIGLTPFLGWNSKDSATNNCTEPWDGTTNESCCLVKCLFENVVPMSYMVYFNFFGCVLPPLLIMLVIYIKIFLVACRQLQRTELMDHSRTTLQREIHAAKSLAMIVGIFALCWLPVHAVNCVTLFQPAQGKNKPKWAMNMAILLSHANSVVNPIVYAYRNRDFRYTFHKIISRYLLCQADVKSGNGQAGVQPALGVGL
Nature of the experiment: Adenosine receptor TR-FRET binding assay (CA200645 displacement), A2b. The conditions noted are these: 30 nM CA200645, CHO cell membranes, 2 hours at room temperature.
Method: All FRET binding experiments were conducted at room temperature in white 384-well plates, in assay binding buffer containing 1×LabMed (Cisbio, France), 100 μg/mL saponin, 1% DMSO and 0.02% pluronic acid. Binding of the fluorescently labelled Adenosine receptor antagonist XAC (CA200645, FRET acceptor) to terbium-labelled A1, A2a, A2b and A3 adenosine receptors (FRET donors) was detected by time-resolved FRET due to the close proximity of the donor and acceptor in a binding event. To investigate the ability of unlabelled test compounds to bind to Adenosine A1, A2a, A2b and A3 receptors, dose response curves were constructed that determined the ability of a range of concentrations to inhibit the binding of 30 nM CA200645 to the A2b receptor and 100 nM CA200645 to the A1, A2a, and A3 receptor.
Serial dilution (1:3 dilutions) of test compounds in neat DMSO and transfer of a 400 nL sample of test compound into the assay plate was carried out using the Mosquito (TTP Labtech, UK). The compound samples were incubated for 2 hours at room temperature with a fixed concentration of CA200645 defined for each receptor (see above) and CHO cell membranes containing the human Adenosine A1 (0.5 μg/well), A2a (0.3 μg/well), A2b (1 μg/well) or A3 (1 μg/well) receptor in 40 μL of assay buffer. Total and non-specific binding of CA200645 was determined in the absence and presence of 10 μM XAC, respectively. Following 2 hours incubation, the level of CA200645 binding was detected on a Pherastar FSX (BMG Labtech, Germany) using standard TR-FRET settings. The terbium donor was excited with three laser flashes at a wavelength of 337 nm, and donor and acceptor emission was detected at 620 nm and 665 nm wavelengths, respectively. FRET ratios were obtained by multiplying the acceptor/donor ratio value by 10,000. Specific binding was determined by subtracting the non-specific binding FRET ratio from the total binding FRET ratio. Compound IC50 curves were analysed using GraphPad Prism 7.0 (GraphPad, USA) and Ki affinity values were determined from the obtained IC50 values using the method of Cheng and Prusoff.

A further experiment relates to human PBMCs. Nature of the experiment: CD3/CD28 stimulated IL-2 release NECA reversal assay in human PBMCs.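 Further: dose-response as % inhibition where 100% equals no-NECA control wells with CD3/CD28.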 It is filed as cell-based. The conditions noted are these: PBMC, CD3/CD28 antibody stimulated, 1 uM NECA, 24 hours, IL-2 in culture supernatant. In short, it runs like this: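 PBMCs from citrated donor blood, 50,000 cells/well on plate-bound CD3 antibody (1 ug/ml), with 1 ug/ml CD28 antibody, 1 uM NECA and antagonist at 0.003-10 μM final. After 24 h at 37° C, supernatant IL-2 was measured by MSD immunoassay.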

For experiment [3], the system named is CD8+ T cells in human whole blood. Nature of the experiment: Measurement of pCREB in CD8+ T cells in human whole blood. It is filed as cell-based. The note with it: T-cell, 1 h; heparinised human whole blood, rolipram, 3 μM NECA, 60 min, phospho-CREB in CD8+ T cells by FACS. In short, it runs like this:
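Heparinised human whole blood preincubated 20 min at 37 °C with serially diluted A2a antagonists plus rolipram, then stimulated 60 min with 3 μM NECA (final). After fixation and RBC lysis, permeabilized leukocytes stained for phospho-CREB and CD8; pCREB in CD8+ T cells read by flow cytometry.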

The target of experiment [4] is T3, human Adenosine A1 receptor (Homo sapiens, UniProt P30542).
T3 sequence (P30542 1-326): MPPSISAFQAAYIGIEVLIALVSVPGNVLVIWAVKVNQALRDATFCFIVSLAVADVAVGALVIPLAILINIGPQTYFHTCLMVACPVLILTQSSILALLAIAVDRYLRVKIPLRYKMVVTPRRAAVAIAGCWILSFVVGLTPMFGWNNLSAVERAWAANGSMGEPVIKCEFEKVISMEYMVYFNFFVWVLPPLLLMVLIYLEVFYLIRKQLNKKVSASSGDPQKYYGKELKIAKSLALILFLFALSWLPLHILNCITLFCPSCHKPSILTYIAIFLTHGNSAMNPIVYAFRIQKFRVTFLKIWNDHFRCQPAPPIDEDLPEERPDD
Nature of the experiment: Adenosine receptor TR-FRET binding assay (CA200645 displacement), A1.

Experiment [5] deals with T4, human Adenosine A3 receptor (Homo sapiens, UniProt P0DMS8).
T4 sequence (P0DMS8 1-318): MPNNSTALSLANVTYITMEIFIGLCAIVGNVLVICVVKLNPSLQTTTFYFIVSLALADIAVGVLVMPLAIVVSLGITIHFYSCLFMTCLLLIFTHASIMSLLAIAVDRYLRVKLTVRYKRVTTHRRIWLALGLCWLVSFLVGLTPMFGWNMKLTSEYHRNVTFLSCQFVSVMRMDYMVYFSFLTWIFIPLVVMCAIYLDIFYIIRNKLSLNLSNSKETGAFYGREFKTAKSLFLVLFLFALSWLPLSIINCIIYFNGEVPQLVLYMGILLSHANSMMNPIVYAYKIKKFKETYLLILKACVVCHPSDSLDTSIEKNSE
Briefly: Adenosine receptor TR-FRET binding assay (CA200645 displacement), A3.

T1 sequence (P29274 whole entry): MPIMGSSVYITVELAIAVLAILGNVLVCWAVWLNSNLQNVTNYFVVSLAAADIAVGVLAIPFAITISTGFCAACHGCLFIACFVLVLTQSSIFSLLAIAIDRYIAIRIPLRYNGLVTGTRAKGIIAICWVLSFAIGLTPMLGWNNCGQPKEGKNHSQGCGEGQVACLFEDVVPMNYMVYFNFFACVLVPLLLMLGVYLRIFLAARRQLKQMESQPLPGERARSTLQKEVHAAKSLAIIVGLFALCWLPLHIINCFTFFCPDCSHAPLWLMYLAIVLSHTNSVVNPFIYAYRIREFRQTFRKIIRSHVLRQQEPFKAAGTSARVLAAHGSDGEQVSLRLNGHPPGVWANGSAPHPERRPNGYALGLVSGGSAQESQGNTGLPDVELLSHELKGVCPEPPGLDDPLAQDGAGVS

As for `Cc1cc(-c2c(-c3cccc(C#N)c3)nn3ccc(C(=O)NCC(C)(C)O)nc23)cc(C)n1` [Example 10, 2-(3-Cyanophenyl)-3-(2,6-dimethyl-4-pyridyl)-N-(2-hydroxy-2-methyl-propyl)pyrazolo[1,5-a]pyrimidine-5-carboxamide], the Ki in experiment [1] was 0.4 nM; in experiment [2], 19 nM; in experiment [4] it was 236 nM; in experiment [5] it was greater than 1000 nM. Also, the figures for the IC50 (in the experiment with human PBMCs; in experiment [3]) were 6 nM and 80 nM, respectively.
Regarding `Cc1cc(-c2c(-c3cccc(C#N)c3)nn3ccc(C(=O)NCC(C)(C)O)nc23)ccn1` [Example 12.2, 2-(3-Cyanophenyl)-N-(2-hydroxy-2-methyl-propyl)-3-(2-methyl-4-pyridyl)pyrazolo[1,5-a]pyrimidine-5-carboxamide], the Ki in experiment [1] was 2.9 nM; in experiment [2], 21 nM; in experiment [4], 5 nM; in experiment [5], 56 nM. The 50% inhibitory concentration (IC50) is 22 nM in the experiment with human PBMCs and 520 nM in experiment [3].
For the compound `Cc1cc(-c2c(-c3cccc(C#N)c3)nn3ccc(C(=O)NCC(C)(C)O)nc23)cc(C(F)F)n1` [Example 12.4, 2-(3-Cyanophenyl)-3-[2-(difluoromethyl)-6-methyl-4-pyridyl]-N-(2-hydroxy-2-methyl-propyl)pyrazolo[1,5-a]pyrimidine-5-carboxamide], the Ki was 0.1 nM in experiment [1], 12 nM in experiment [2], 148 nM in experiment [4] and 1550 nM in experiment [5]. For the same compound, the concentration for half-maximal inhibition (IC50) in the experiment on human PBMCs turned out to be 4 nM; in experiment [3], 150 nM.
With `COc1cc(-c2c(-c3cccc(C#N)c3)nn3ccc(C(=O)NCC(C)(C)O)nc23)cc(C)n1` [Example 12.6, 2-(3-Cyanophenyl)-N-(2-hydroxy-2-methyl-propyl)-3-(2-methoxy-6-methyl-4-pyridyl)pyrazolo[1,5-a]pyrimidine-5-carboxamide], the Ki in experiment [1] amounted to 1 nM; in experiment [2], 75 nM; in experiment [4] it was 251 nM; in experiment [5] it was 690 nM. Also, the values for the IC50 (in the experiment with human PBMCs; in experiment [3]) were 9 nM and 370 nM, respectively.
On to `Cc1cc(-c2c(-c3cccc(C#N)c3)nn3ccc(C(=O)NCC(C)(C)O)nc23)cc(C#N)n1` [Example 12.8, 3-(2-Cyano-6-methyl-4-pyridyl)-2-(3-cyanophenyl)-N-(2-hydroxy-2-methyl-propyl)pyrazolo[1,5-a]pyrimidine-5-carboxamide], for which the Ki in experiment [1] was 3.4 nM; in experiment [2], 177 nM; in experiment [4], 575 nM; in experiment [5], greater than 1000 nM. Besides, the results for the half-maximal inhibitory concentration (IC50) (in the experiment on human PBMCs; in experiment [3]) were 35 nM and 350 nM, respectively.
With `Cc1cc(-c2c(-c3cccc(C#N)c3)nn3ccc(C(=O)NCC(C)(C)O)nc23)cc(C(F)(F)F)n1` [Example 12.9, 2-(3-Cyanophenyl)-N-(2-hydroxy-2-methyl-propyl)-3-[2-methyl-6-(trifluoromethyl)-4-pyridyl]pyrazolo[1,5-a]pyrimidine-5-carboxamide], the Ki in experiment [1] was determined as 0.1 nM; in experiment [2] it was 6 nM; in experiment [4], 47 nM; in experiment [5], 860 nM. In addition, the IC50 with human PBMCs was 2 nM; in experiment [3], 80 nM.
With `Cc1cc(-c2c(-c3cccc(C#N)c3)nn3ccc(OCC(C)(C)O)nc23)cc(Cl)n1` [Example 15, 3-[3-(2-Chloro-6-methyl-4-pyridyl)-5-(2-hydroxy-2-methyl-propoxy)pyrazolo[1,5-a]pyrimidin-2-yl]benzonitrile], the Ki was found to be 1.2 nM in experiment [1], 9 nM in experiment [2], 46 nM in experiment [4] and 1920 nM in experiment [5]. Besides, the results for the IC50 (in the experiment on human PBMCs; in experiment [3]) were 2 nM and 380 nM, respectively.
Consider `Cc1cc(-c2c(-c3cccc(C#N)c3)nn3ccc(NC(=N)N)nc23)cc(Cl)n1` [Example 16.1, 1-[3-(2-Chloro-6-methyl-4-pyridyl)-2-(3-cyanophenyl)pyrazolo[1,5-a]pyrimidin-5-yl]guanidine], for which the Ki in experiment [1] was 1.4 nM; in experiment [2], 8 nM; in experiment [4], 116 nM; in experiment [5], 2600 nM. Further, the IC50 was determined as 77 nM in the experiment with human PBMCs and 1050 nM in experiment [3].
Consider `Cc1cc(-c2c(-c3cccc(C#N)c3)nn3ccc(NCC(C)(C)O)nc23)cc(C(F)F)n1` [Example 23, 3-[3-[2-(Difluoromethyl)-6-methyl-4-pyridyl]-5-[(2-hydroxy-2-methyl-propyl)amino]pyrazolo[1,5-a]pyrimidin-2-yl]benzonitrile], for which the inhibition constant Ki was 0.6 nM in experiment [1], 53 nM in experiment [2], 42 nM in experiment [4] and greater than 1000 nM in experiment [5]. The IC50 amounted to 20 nM with human PBMCs and 390 nM in experiment [3].
For the compound `COc1cc(-c2c(-c3cccc(C#N)c3)nn3ccc(NCC(C)(C)O)nc23)cc(C)n1` [Example 23.1], the Ki in experiment [1] is 1.3 nM; in experiment [2], 143 nM; in experiment [4], 147 nM; in experiment [5], greater than 1000 nM. The IC50 in the experiment on human PBMCs was 83 nM; in experiment [3], 1010 nM.
Consider `Cc1cc(-c2c(-c3cccc(C#N)c3)nn3ccc(NCC(C)(C)O)nc23)cc(C)n1` [Example 23.2], for which the Ki in experiment [1] is 1.9 nM; in experiment [2], 168 nM; in experiment [4], 280 nM; in experiment [5], greater than 1000 nM. Also, the values for the concentration for half-maximal inhibition (IC50) (in the experiment with human PBMCs; in experiment [3]) were 25 nM and 260 nM, respectively.
As to `Cc1cc(-c2c(-c3cccc(C#N)c3)nn3ccc(OC4CCNCC4)nc23)cc(Cl)n1` [Example 24, 3-[3-(2-Chloro-6-methyl-4-pyridyl)-5-(4-piperidyloxy)pyrazolo[1,5-a]pyrimidin-2-yl]benzonitrile], the inhibition constant (Ki) in experiment [1] is 0.6 nM; in experiment [2], 16 nM; in experiment [4], 216 nM; in experiment [5], greater than 1000 nM. In addition, the values for the half-maximal inhibitory concentration (IC50) (in the experiment with human PBMCs; in experiment [3]) were 51 nM and 3630 nM, respectively.
Consider `Cc1cc(-c2c(-c3cccc(C#N)c3)nn3ccc(N)nc23)cc(C(F)F)n1` [Example 26.1, 3-[5-Amino-3-[2-(difluoromethyl)-6-methyl-4-pyridyl]pyrazolo[1,5-a]pyrimidin-2-yl]benzonitrile], for which the inhibitory constant (Ki) in experiment [1] stood at 1.5 nM; in experiment [2], 2 nM; in experiment [4], 17 nM; in experiment [5] it was 2360 nM. Also, the IC50 with human PBMCs stood at 32 nM; in experiment [3], 460 nM.
Regarding `COc1cc(-c2c(-c3cccc(C#N)c3)nn3ccc(N)nc23)cc(C)n1` [Example 26.2, 3-[5-Amino-3-(2-methoxy-6-methyl-4-pyridyl)pyrazolo[1,5-a]pyrimidin-2-yl]benzonitrile], the Ki in experiment [1] was found to be 6.2 nM; in experiment [2], 18 nM; in experiment [4] it was 123 nM; in experiment [5], 2520 nM. Further, the IC50 amounted to 69 nM with human PBMCs and 2540 nM in experiment [3].
Turning to `Cc1cc(-c2c(-c3cccc(C#N)c3)nn3ccc(N)nc23)cc(N)n1` [Example 27.1, 3-[5-Amino-3-(2-amino-6-methyl-4-pyridyl)pyrazolo[1,5-a]pyrimidin-2-yl]benzonitrile], the inhibition constant (Ki) in experiment [1] is 9.2 nM; in experiment [2], 43 nM; in experiment [4] it was 62 nM; in experiment [5], greater than 1000 nM. For the same compound, the 50% inhibitory concentration (IC50) was 36 nM in the experiment with human PBMCs and 740 nM in experiment [3].

What is called Ki is the equilibrium dissociation constant of an inhibitor or competing ligand from its target. The IC50 is the midpoint of a concentration-inhibition curve.
